Patent publication US11819025B2, “Active compound combinations having insecticidal/acaricidal properties” (Bayer Aktiengesellschaft, priority 2017, dated 2023)
Where two headings read alike, the source gives them in different places.

Legend:
Assay type in all cases: in vivo
[1] = tested on: Tetranychus urticae; assay: Tetranychus urticae - spray test, OP-resistant (Example A, French bean leaf disks); conditions: for pest or weed control at 1.2 g/ha: 1.2 g ai/ha
From the text: (§1) E is the efficacy expressed in % mortality of the untreated control using the mixture of A and B at m and n ppm respectively m and n g/ha, • then is
Tetranychus urticae—Spray Test OP-Resistant
Solvent: 78.0 parts by weight acetone • 1.5 parts by weight dimethylformamide
Emulsifier: alkylarylpolyglycol ether […]
French bean (Phaseolus vulgaris) leaf disks infected with all instars of the two spotted spidermite (Tetranychus urticae), are sprayed with a preparation of the active ingredient of the desired concentration.
After the specified period of time, mortality in % is determined. 100% means all spider mites have been killed and 0% means none of the spider mites have been killed. The mortality values determined thus are recalculated using the Colby-formula (see above).

[2] = tested on: Meloidogyne incognita; assay: Meloidogyne incognita - test (Example C, sand, salad seeds, gall formation); conditions: single active ingredient, reduction of gall formation
Experimental: Meloidogvne incognita—Test
Solvent: 125.0 parts by weight of acetone
To produce a suitable preparation of active compound, 1 part by weight of active compound is mixed with the stated amount of solvent, and the concentrate is diluted with water to the desired concentration.
To produce a suitable preparation of a spore suspension the spores are diluted with water to the desired concentration.
Vessels are filled with sand, a solution of the active ingredient, a suspension containing eggs and larvae of the southern root-knot nematode (Meloidogyne incognita) and salad seeds. The salad seeds germinate and the seedlings grow. Galls develop in the roots.
After the specified period of time nematicidal activity is determined on the basis of the percentage of gall formation. 100% means no galls were found and 0% means the number of galls found on the roots of the treated plants was equal to that in untreated control plants.

[3] = tested on: Meloidogyne incognita; assay: Meloidogyne incognita - test (Example D, soil drench, salad seeds, gall formation); conditions: single active ingredient, reduction of gall formation
Experimental: The expected efficacy of a given combination of two compounds is calculated as follows (see Colby, S. R., “Calculating Synergistic and antagonistic Responses of Herbicide Combinations”, Weeds 15, pp. 20-22, 1967): • If • X is the efficacy expressed in % mortality of the untreated control for test compound A at a concentration of m ppm respectively m g/ha, • Y is the efficacy expressed in % mortality of the untreated control for test compound B at a concentration of n ppm respectively n g/ha,
as §1
[formula] • If the observed insecticidal efficacy of the combination is higher than the one calculated as “E”, then the combination of the two compounds is more than additive, i.e., there is a synergistic effect.
Meloidogyne incognita—Test
(§2) Solvent: 7 parts by weight of dimethylformamide
Emulsifier: 2.5 parts by weight of alkylarylpolyglycolether
To produce a suitable preparation of active compound, 1 part by weight of active compound is mixed with the stated amount of solvent and emulsifier and is diluted with water to the desired concentration. To produce a suitable preparation of a spore suspension the spores are diluted with emulsifier containing water to the desired concentration. In the calculation of the concentration the soil volume has to be included. […] Further test concentrations are prepared by dilution with water.
The compound solution is poured into pots filled with soil (loamy sand). A suspension containing eggs and larvae of the southern root-knot nematode (Meloidogyne incognita) is added, salad seeds are spread on the soil surface and covered with quartz sand. The salad seeds germinate and the seedlings grow. Galls develop on the roots.
After the specified period of time the nematicidal activity is determined on the basis of the percentage of gall formation. 100% means no galls were found; 0% means the number of galls found on the roots of the treated plants was equal to that in untreated control plants. The activity determined thus is recalculated using the Colby-formula (see above).

[4] = tested on: Tetranychus urticae; assay: Tetranychus urticae - spray test, OP-resistant (Example B, infested bean plants); conditions: single active ingredient, mortality
Experimental: as §1
Tetranychus urticae—Spray Test; OP-Resistant
as §2
Emulsifier: alkylaryl polyglycol ether
Further test concentrations are prepared by dilution with emulsifier containing water.
After the specified period of time mortality in % is determined. 100% means all the spider mites have been killed and 0% means none of the spider mites have been killed. The mortality values determined thus are recalculated using the Colby-formula (see above).

[5] = 0.5 g ai/ha, single active ingredient, mortality
[6] = Tetranychus urticae, foliar, 144 h, read-out: Efficacy in % after 6 days
[7] = Tetranychus urticae, foliar, 144 h, 0.5 g ai/ha, single active ingredient, mortality, read-out: Efficacy in % after 6 days
[8] = Tetranychus urticae, foliar, 144 h, single active ingredient, mortality, read-out: Efficacy in % after 6 days

Question: What does the source list for `CCCCCCCCCCCCC1=C(OC(C)=O)C(=O)c2ccccc2C1=O` [Acequinocyl, acequinocyl]?
Answer: Efficacy in % after 2 days ([1]; 1 g ai/ha, single active ingredient, mortality): 0%; pest or weed control at 1 g/ha ([1]; Tetranychus urticae, foliar, 144 h, 1 g ai/ha, single active ingredient, mortality, read-out: Efficacy in % after 6 days): 0%

Question: For `COc1ccc(Cl)c(S(=O)(=O)NC(=O)c2cn3cc(C(F)(F)F)cc(Cl)c3n2)c1` [Fluazaindolizine], which “Efficacy in % after 14 days” value ([2]; 0.025 ppm) is on record?
Answer: 0%

Question: And the “Efficacy in % after 20 days” value ([3]; 0.2 ppm)?
Answer: 0%

Question: And the “Efficacy in % after 20 days” value ([3]; 0.4 ppm)?
Answer: 40%

Question: For `O=C(Nc1ccn(-c2c(F)cccc2F)n1)c1ccccc1C(F)(F)F` [Cpd of formula (IIb), N-[1-(2,6-difluorophenyl)-1H-pyrazol-3-yl]-2-(trifluoromethyl)benzamide], which “Efficacy in % after 14 days” value ([2]; 1.5 ppm) is on record?
Answer: 0%

Question: And the “Efficacy in % after 20 days” value ([3]; 0.4 ppm)?
Answer: 0%

Question: With `c1ccc(-c2noc(-c3cccs3)n2)cc1` [Tioxazafen] as the molecule, how does the “Efficacy in % after 20 days” value ([3]; 1.25 ppm) read?
Answer: 0%

Question: What does the source list for `O=C(NCCc1ncc(C(F)(F)F)cc1Cl)c1ccccc1C(F)(F)F` [Fluopyram]?
Answer: Efficacy in % after 20 days ([3]; 0.04 ppm): 0%; Efficacy in % after 20 days ([3]; 0.08 ppm): 0%

Question: For `COc1ccc(-c2ccccc2)cc1NNC(=O)OC(C)C` [Bifenazate], which pest or weed control at 0.25 g/ha ([1]; Tetranychus urticae, foliar, 144 h, 0.25 g ai/ha, single active ingredient, mortality, read-out: Efficacy in % after 6 days) is on record?
Answer: 0%

Question: And the pest or weed control at 1.8 g/ha ([1]; Tetranychus urticae, foliar, 144 h, 1.8 g ai/ha, single active ingredient, mortality, read-out: Efficacy in % after 6 days)?
Answer: 0%

Question: And the “Efficacy in % after 7 days” value ([4]; 2 ppm)?
Answer: 65%

Question: `CC(C)c1cc(Oc2ccccc2)cc(C(C)C)c1NC(=S)NC(C)(C)C` [Diafenthiuron, diafenthiuron] was tested. Which “Efficacy in % after 2 days” value [1, 5] did it give?
Answer: 0%

Question: What about the pest or weed control at 0.5 g/ha [1, 6] of the same molecule?
Answer: 0%

Question: What about the pest or weed control at 3 g/ha [1, 6] of the same molecule?
Answer: 0%

Question: What about the “Efficacy in % after 7 days” value ([4]; 3.2 ppm) of the same molecule?
Answer: 15%

Question: For `CC(C)(C)c1ccc(CSc2cnn(C(C)(C)C)c(=O)c2Cl)cc1` [Pyridaben, pyridaben], which pest or weed control at 0.5 g/ha [1, 7] is on record?
Answer: 0%

Question: For `CCc1nn(C)c(C(=O)NCc2ccc(C(C)(C)C)cc2)c1Cl` [Tebufenpyrad, tebufenpyrad], which “Efficacy in % after 2 days” value [1, 5] is on record?
Answer: 0%

Question: What about the pest or weed control at 0.5 g/ha [1, 7] of the same molecule?
Answer: 0%

Question: For `Cc1nn(C)c(Oc2ccccc2)c1C=NOCc1ccc(C(=O)OC(C)(C)C)cc1` [Fenpyroximate, fenpyroximate], which pest or weed control at 0.2 g/ha [1, 6] is on record?
Answer: 0%

Question: Which pest or weed control at 6 g/ha ([1]; Tetranychus urticae, foliar, 144 h, 6 g ai/ha, single active ingredient, mortality, read-out: Efficacy in % after 6 days) does the source give for `CNC(=O)Oc1cc(C)c(SC)c(C)c1` [Methiocarb, 4-methylthio-3,5-xylyl methylcarbamate] here?
Answer: 0%

Question: What about the pest or weed control at 12 g/ha ([1]; Tetranychus urticae, foliar, 144 h, 12 g ai/ha, single active ingredient, mortality, read-out: Efficacy in % after 6 days) of the same molecule?
Answer: 0%

Question: Which results are given for `Cc1cc(F)c(N=C2SCC(=O)N2CC(F)(F)F)cc1[S+]([O-])CC(F)(F)F` (centres unmarked) [Cpd of formula (I)]?
Answer: pest or weed control at 1.2 g/ha [1, 8]: 70%; Efficacy in % after 7 days ([4]; 0.2 ppm): 0%; Efficacy in % after 4 days ([4]; 0.4 ppm): 0%; Efficacy in % after 7 days ([4]; 0.4 ppm): 10%; Efficacy in % after 4 days ([4]; 0.8 ppm): 25%; Efficacy in % after 20 days ([3]; 10 ppm): 0%; Efficacy in % after 20 days ([3]; 20 ppm): 15%

Question: Which results are given for `O=S(=O)(CCC(F)=C(F)F)c1ncc(Cl)s1` [Fluensulfone]?
Answer: Efficacy in % after 14 days ([2]; 0.1 ppm): 0%; Efficacy in % after 14 days ([2]; 0.2 ppm): 0%; Efficacy in % after 20 days ([3]; 0.4 ppm): 0%

Question: With `CC(C)(C)c1ccc(CCOc2ncnc3ccccc23)cc1` [Fenazaquin, fenazaquin] as the molecule, how does the pest or weed control at 1.2 g/ha [1, 8] read?
Answer: 0%

Question: What about the pest or weed control at 2.4 g/ha ([1]; Tetranychus urticae, foliar, 144 h, 2.4 g ai/ha, single active ingredient, mortality, read-out: Efficacy in % after 6 days) of the same molecule?
Answer: 0%
